Like-named read-outs stand apart in the source and are kept apart here.
Assays:
[1] = test system: HCV subgenomic reporter replicon of genotype 1b (strain Con1); assay: Anti-HCV 1b activity, luciferase reporter replicon assay in Huh5-2 cells; assay type: cell-based, Hepatitis C virus; details: for EC50: Hepatitis C virus
Method: (§1) The HCV RNA replication inhibitory effect of the novel compounds and their impact on cell viability was tested in the stable cell line Huh5-2 carrying an HCV subgenomic reporter replicon of genotype 1b (strain Con1). The viral replication level was measured in terms of the activity of the co-expressed firefly luciferase (F-Luc). Several concentrations of the tested compounds were prepared in a cell culture medium and were used to treat the cells for 72 h. The solvent DMSO was added as a control with a final concentration of 0.2% so as not to impact viral replication (data not shown). First, different compound concentrations of up to 100 μM were evaluated for their effect on cell viability; results are reported as the median cytotoxic concentration (CC50). Next, all compounds were screened for their anti-HCV activity at a concentration of 1 µM, and compounds showing ≥50% activity were further tested in several concentrations to calculate the median effective concentration (EC50) values (Table 1 and Table 2). The anti-HCV activity of the analogs 1–32 was estimated by quantifying luciferase activity resulting from viral replication. Cytotoxicity was determined by measuring the intracellular levels of ATP. The selectivity index (SI50) was calculated as the ratio of CC50 to EC50 and was calculated as an indication of the compounds’ safety. We used daclatasvir as a positive control.
(§2) The stable replicon cell line Huh5-2 (genotype 1b; Con1) (kindly provided by R. Bartenschlager, Heidelberg University, Germany) has been described previously. The stable cell lines Huh7.5-3a and Huh7.5-4a have been constructed with the subgenomic reporter replicons of HCV 3a (S52) S52-SG(Feo)(AII) and HCV 4a (ED43) ED43-SG(Feo)(VYG) (kindly provided by C.M. Rice, The Rockefeller University, NY). Cells were cultured in high glucose (25 mM) Dulbecco’s modified minimal essential medium (Invitrogen), supplemented with 2 mM L-glutamine, 0.1 mM non-essential amino acids, 100 U/mL penicillin, 100 µg/mL streptomycin, and 10% (v/v) fetal calf serum (referred to as complete DMEM). Complete DMEM was supplemented with G418 at 500 μg/mL for Huh5-2, 750 μg/mL for Huh7.5-3a, and 350 μg/mL for Huh7.5-4a.
(§3) Cells were treated with serial dilutions of the test compounds or the solvent DMSO for 72 h. Antiviral activity and cytotoxicity were determined by measuring virus-derived luciferase activity or intracellular ATP levels, respectively. The median effective concentration (EC50) of the compounds, reducing luciferase signal by 50%, and their median cytotoxic concentration (CC50), causing 50% cell death, were determined by nonlinear regression analysis using the Prism 6.0 software (GraphPad Software Inc.). Daclatasvir was kindly provided by Dr. Marc Windisch (Institut Pasteur Korea).
Firefly luciferase activity was measured using Luciferase Assay System (Promega), according to the manufacturer’s instructions. Measurements were performed with a GloMax 20/20 single tube luminometer (Promega) for 10 s. Values were normalized to total protein amounts as quantified by Bradford assay (Pierce).

[2] = Cytotoxicity by intracellular ATP levels; assay type: cell-based; details: human, Huh5-2 cells, read-out: HCV Replicon 1b CC50
Method: as §1, §3
ATP was measured using the ViaLight HS BioAssay kit (Lonza) according to the manufacturer’s protocol in a GloMax 20/20 single-tube luminometer (Promega) for 1 s. Values were normalized to total protein amounts.

[3] = test system: HCV subgenomic replicon of genotype 4a (strain ED43); assay: Anti-HCV 4a activity, replicon assay in Huh7.5-4a cells; assay type: cell-based; details: Hepatitis C virus, read-out: EC50 GT 4a
Source text: (§4) Compound 26, showing the highest activity on genotype 1b was further tested against HCV 3a and 4a replicons. The fact that genotype 4 is highly heterogeneous, of less response to DAAs, and the most prevalent genotype in Egypt, made this genotype of specific interest. Moreover, genotype 3 is the most difficult to treat genotype using DAAs, especially in patients with liver cirrhosis. Specifically, Huh7.5-3a and Huh7.5-4a stable cell lines having HCV subgenomic replicons of genotypes 3a (strain S52) and 4a (strain ED43), respectively, were treated with different concentrations of compound 26. […] Further structural optimization is required, and testing compound 26 in combination with other DAAs could improve the clinical outcome.
The stable replicon cell line Huh5-2 (genotype 1b; Con1) (kindly provided by R. Bartenschlager, Heidelberg University, Germany) has been described previously. […]
(§5) Cells were treated with serial dilutions of the test compounds or the solvent DMSO for 72 h. Antiviral activity and cytotoxicity were determined by measuring virus-derived luciferase activity or intracellular ATP levels, respectively. […]
(§6) Firefly luciferase activity was measured using Luciferase Assay System (Promega), according to the manufacturer’s instructions. […] Values were normalized to total protein amounts as quantified by Bradford assay (Pierce).

[4] = test system: HCV genotype 1b replicon (Huh5-2 cells); assay: Drug-drug interaction with daclatasvir in Huh5-2 replicon cells (F-Luc activity); assay type: cell-based, Hepatitis C virus
Method: Next, we investigated the effect of compound 26 in the presence of daclatasvir (DCV) in Huh5-2 replicon cells. […] It is worth noting that NS5A is a very flexible protein and can attain different conformations (open conformer and closed conformer PDB ID: 1ZH1, 3FQM, respectively); thus, there is the potential for different binding modes of daclatasvir and our molecules, at the active center of the NS5A protein, leading to synergism.
The coefficient of Drug interactions (CDI) is calculated as follows: CDI = AB / (A × B), where AB is the ratio of the combination groups to the control group; A or B is the ratio of the single-agent group to the control group.
Figure 4 Synergistic anti-HCV activity of compound 26 with daclatasvir (DCV). Huh5-2 cells were treated with 30 pM or […] of DCV was used to in the presence or absence of the analog. F-Luc activity was quantified as relative light units (RLU) per μg of total protein. Values derived from cells treated with the solvent DMSO (control—C) were set to 100%. CDI: coefficient of drug interaction. Bars show mean values derived from three independent experiments in triplicate. Error bars denote standard deviation (SD). TEXT PRINTED IN THE PICTURE: 26 + DCV: CDI: 0,68 (DCV 15 pM - Comp. 26 25 pM); CDI: 0,70 (DCV 30 pM - Comp. 26 50 pM)

HCV 1b RNA = assay: Quantification of (+) strand HCV RNA by RT-qPCR in Huh5-2 cells; assay type: cell-based; details: Hepatitis C virus, Huh-5-2, normalized to YWHAZ
Method: The HCV RNA and NS5A protein levels were determined in cells treated with compound 26 using reverse transcription-quantitative polymerase chain reaction (RT-qPCR) or Western blot analysis, respectively (Figure 5A).
Total RNA was extracted from Huh5-2 cells with Nucleozol reagent (Macherey-Nagel), according to the manufacturer’s instructions, and used to perform reverse-transcription (RT) and quantitative real-time polymerase chain reaction (qPCR) for replicon RNA. RT was performed using Moloney Murine Leukemia Virus (MMLV) reverse transcriptase (Promega) and reverse primers specific for Con1 IRES (5’-[…]-3’) and the housekeeping gene YWHAZ (5’- […]-3’). For qPCR, primers specific for the Con1 IRES (forward: 5’-[…]-3’and reverse: 5’-[…]-3’) and KAPA SYBR FAST qPCR Master Mix (Kapa Biosystems) were used. YWHAZ mRNA was used as a normalization control (forward: 5’-[…]-3’ and reverse: 5’- […]-3’).
Figure 5 Anti-HCV activity of compound 26 at the level of viral RNA and protein. Different concentrations of compound 26, or the solvent DMSO (control—C), were used to treat Huh5-2 cells. (A) Quantification of (+) strand HCV RNA by RT-qPCR. Values are expressed as a percentage of those obtained from control cells. mRNA levels of the housekeeping gene 14-3-3-zeta polypeptide (YWHAZ) were used for normalization. (B) (Top) Western blot analysis for NS5A. β-actin was used as a loading control. […]

[5] = test system: HCV subgenomic replicon of genotype 3a (strain S52); assay: Anti-HCV 3a activity, replicon assay in Huh7.5-3a cells; assay type: cell-based, Hepatitis C virus
Source text: as §4, §2, §5, §6

CCOC(=O)N[C@@H](C(=O)N1CCC[C@H]1C(=O)Nc1ccc2c(c1)Cc1cc(NC(=O)[C@@H]3CCCN3C(=O)[C@H](NC(=O)OCC)c3ccccc3)ccc1-2)c1ccccc1 [Compound 26, Diethyl((1R,1’R)-((2S,2’S)-(((9H-fluorene-2,7-diyl)bis(azanediyl))bis(carbonyl))bis(pyrrolidine-2,1-diyl))bis(2-oxo-1-phenylethane-2,1-diyl))dicarbamate]
fold more active than S counterparts ([1]; 25 vs 21, 26 vs 22, HCV 1b EC50 ratio): 200 fold | EC50 ([1]; Huh-5-2, 72 h, read-out: HCV Replicon 1b EC50): 0.036 nM | EC50 ([1]; Huh-5-2, read-out: EC50 against HCV genotype 1b): 0.04 nM | selectivity index relative to daclatasvir ([1]; SI50 ratio): four-fold better | CC50 at 72 h [2]: > 100000 nM | EC50 [3]: 117 nM | CDI ([4]; DCV 15 pM - Comp. 26 25 pM): 0,68 | CDI ([4]; DCV 30 pM - Comp. 26 50 pM): 0,70 | coefficient of drug interaction (CDI) ([4]; compound 26 with daclatasvir, CDI <1 synergistic): ≈ 0.7 | EC50 (HCV 1b RNA): 0.03 nM | effect on GT 3a relative to daclatasvir ([5]; EC50 ratio): seven-fold higher | EC50 ([5]; Hepatitis C virus, read-out: EC50 GT 3a): 1.2 nM
